Data taken from publication PMC9558510 (Cancers, 2022).

Experiments:
[1] = Logistic regression of dose reduction/discontinuation vs predicted exposure; type: in vivo, human; details: logistic regression, standard dosing assumed
Procedure: (§1) Data were collected and processed using Microsoft Excel 2016 Version 16.0 (Microsoft Corporation, Redmond, WA, USA). Statistical calculations and visualization of results were performed with R Studio Version 1.2.5042 (RStudio Incorporation, Boston, MA, USA) running R version 4.0.5 (R Foundation for Statistical Computing, Vienna, Austria, 2020). For further analysis, serum concentrations were divided into groups according to time interval post-dose as follows: 0–5 h, 5–10 h, 10–14 h, and >14 h for (hydroxy-)dabrafenib and 0–10 h, 10–20 h, 20–30 h, and >30 h for trametinib. Concentrations < LLOQ were excluded from further statistical analyses. The concentrations of the same patient at the same dosage and within the same post-dose group were summarized into an individual mean serum concentration for descriptive statistical analysis to account for potential bias caused by the unbalanced number of samples per patient. […] The Wilcoxon […] test was used for unpaired samples. The correlations between individual PK parameters sampled from the conditional distribution during the generation of EBE (methods for estimation see below) and age, sex, body mass index (BMI), and co-medication were analyzed using analysis of variance (ANOVA) and Spearman’s correlation coefficient. Logistic regression was used to compare the risk of treatment discontinuations or dose reductions (dabrafenib dose reduction or discontinuation, trametinib dose reduction or discontinuation, or any dose reduction or discontinuation) with the corresponding predicted trough concentrations and area under the curve of a dosing interval (AUCτ) of dabrafenib, hydroxy-dabrafenib, and trametinib as well as with the composite predicted dabrafenib/hydroxy-dabrafenib trough concentration and with composite dabrafenib/hydroxy-dabrafenib AUCτ assuming standard dosing. The Hosmer–Lemeshow test was used to evaluate the goodness of fit for our logistic regression model. Due to the explorative nature of the study, p-values obtained from multiple comparisons were not corrected for multiple testing. A p-value < 0.05 was considered statistically significant.

[2] = Observed steady-state serum concentrations (LC-MS/MS) in melanoma patients; type: in vivo, human
Procedure: Serum samples were collected regularly during each routine outpatient visit from study enrollment until January 2022 or until treatment discontinuation. If possible, blood sampling was performed before the next drug administration, but any time interval between the last administration and blood withdrawal was accepted. The steady-state was assumed after continuous dosing for fourteen days for both compounds.
Hydroxy-dabrafenib concentrations were analyzed using a different previously published LC-MS/MS method with an LLOQ of 10 ng/mL [37]. […] Hydroxy-dabrafenib was not quantified in capillary blood samples as the methodology was not available at the time of analysis. All the methods have been validated according to the guidelines of the U.S. Food and Drug Administration and/or the European Medicines Agency.
as §1

[3] = Empirical Bayesian estimates of serum AUCτ and Cmin from serum samples with existing popPK models; details: steady state, 150 mg q12h dabrafenib
Procedure: For each compound, a popPK model developed by Balakirouchenane et al. was assessed regarding its suitability to create EBE using Monolix 2021R1 (Lixoft SAS, Antony, Fance). […] The predictive performance of the models was estimated by calculating the prediction error (PE), mean prediction error (MPE), mean absolute prediction error (MAPE), and mean relative deviation (MRD):(1) PEi[%]=Cpredicted,i−Cobserved,i/Cobserved,i·100 (2) MPE[%]=1/n∑i=1nPEi (3) MAPE[%]=1/n∑i=1n|PEi| (4) MRD=10^x;x=1/n∑i=1n(log10[Cpredicted,i]−log10[Cobserved,i])^2
Estimates for AUCτ were generated for every occasion for the standard doses (150 mg q12h for dabrafenib, 2 mg q24h for trametinib). In addition, the individual predicted Cmin at a steady state was generated since not all patients contributed trough samples. The same estimates were used in the logistic regression model.

[4] = serum, dabrafenib dose of 150 mg q12h
[5] = standard dose, BMI (kg/m2) < 30
[6] = standard dose, BMI (kg/m2) >= 30
[7] = standard dose, P-gp inducer: no
[8] = standard dose, P-gp inducer: yes
[9] = standard dose, P-gp inhibitor: no
[10] = standard dose, P-gp inhibitor: yes
[11] = standard dose, age above 65: no
[12] = standard dose, age above 65: yes
[13] = standard dose, moderate CYP2C8 inhibitor: no
[14] = standard dose, moderate CYP2C8 inhibitor: yes

SMILES: CC(C)(CO)c1nc(-c2cccc(NS(=O)(=O)c3c(F)cccc3F)c2F)c(-c2ccnc(N)n2)s1 [hydroxy-dabrafenib]
- relationship between dose reduction or discontinuation due to AE and predicted serum trough concentrations or AUCτ [1]: no significant relationships
- median of individual mean trough concentration [2, 4]: 76.0 ng/mL
- range of individual mean trough concentration [2, 4]: 37.2 to 171.0 ng/mL
- effect of co-medication with at least one P-gp inducer on individual mean trough concentrations ([2]; serum, standard dose): no effect
- serum Cmin mean [2, 5]: 73.6 ng/mL
- serum Cmin median [2, 5]: 72.9 ng/mL
- serum Cmin mean [2, 6]: 97.6 ng/mL
- serum Cmin median [2, 6]: 68.3 ng/mL
- serum Cmin mean [2, 7]: 101 ng/mL
- serum Cmin median [2, 7]: 90.9 ng/mL
- serum Cmin mean [2, 8]: 62.1 ng/mL
- serum Cmin median [2, 8]: 56.6 ng/mL
- serum Cmin mean [2, 9]: 100 ng/mL
- serum Cmin median [2, 9]: 78 ng/mL
- serum Cmin mean [2, 10]: 77.3 ng/mL
- serum Cmin median [2, 10]: 70.2 ng/mL
- serum Cmin mean ([2]; standard dose, PPI: no): 93.1 ng/mL
- serum Cmin median ([2]; standard dose, PPI: no): 78 ng/mL
- serum Cmin mean ([2]; standard dose, PPI: yes): 53.7 ng/mL
- serum Cmin median ([2]; standard dose, PPI: yes): 53.7 ng/mL
- serum Cmin mean [2, 11]: 92.7 ng/mL
- serum Cmin median [2, 11]: 77.6 ng/mL
- serum Cmin mean [2, 12]: 66.2 ng/mL
- serum Cmin median [2, 12]: 55.6 ng/mL
- serum Cmin mean [2, 13]: 89.4 ng/mL
- serum Cmin median [2, 13]: 78 ng/mL
- serum Cmin mean [2, 14]: 86.3 ng/mL
- serum Cmin median [2, 14]: 76.6 ng/mL
- serum Cmin mean ([2]; standard dose, sex female): 86 ng/mL
- serum Cmin median ([2]; standard dose, sex female): 68.3 ng/mL
- serum Cmin mean ([2]; standard dose, sex male): 77.3 ng/mL
- serum Cmin median ([2]; standard dose, sex male): 72.9 ng/mL
- median of the average predicted trough concentrations [3]: 84.5 ng/mL
- median of the average predicted AUCτ ([3]; average over all observations per patient): 6040 ng·h/mL
